# From article PMC10099431 (ACS Omega, 2023)
# Read-outs that look alike come from different tables or passages of the source.
# Assays:
# [1] = format: physicochemical; conditions: 298.15 K; for 100 δx1,3 (preferential solvation parameter of RST by PEG400) / D (derivative of the Gibbs energy of transfer) / G1,3 (Kirkwood–Buff integral, PEG400–RST) / G2,3 (Kirkwood–Buff integral, water–RST) / Vcor (correlation volume): 0.1 MPa
# [2] = cited from earlier work
# [3] = cited from earlier work; remark: listed apart in the source
smiles,measurement,setting,value
"CC(C)c1nc(N(C)S(C)(=O)=O)nc(-c2ccc(F)cc2)c1/C=C/[C@@H](O)C[C@@H](O)CC(=O)[O-].CC(C)c1nc(N(C)S(C)(=O)=O)nc(-c2ccc(F)cc2)c1/C=C/[C@@H](O)C[C@@H](O)CC(=O)[O-].[Ca+2] [RST, (E)-7-[4-(4-fluorophenyl)-6-isopropyl-2-[methyl(methylsulfonyl)amino]pyrimidin-5-yl]-(3R,5S)-3,5-dihydroxyhept-6-enoic acid, calcium salt (2:1)]","100 δx1,3 (preferential solvation parameter of RST by PEG400)",[1]; x1 = 0.45,1.64
same,D (derivative of the Gibbs energy of transfer),[1]; x1 = 0.45,–5.48 kJ·mol^–1
same,"G1,3 (Kirkwood–Buff integral, PEG400–RST)",[1]; x1 = 0.45,–325.4 cm^3·mol^–1
same,"G2,3 (Kirkwood–Buff integral, water–RST)",[1]; x1 = 0.45,–568.4 cm^3·mol^–1
same,Vcor (correlation volume),[1]; x1 = 0.45,4133 cm^3·mol^–1
same,"δx1,3, highest preferential solvation parameter of RST by PEG400",[1]; x1 = 0.5,1.65 × 10^–2
same,"100 δx1,3 (preferential solvation parameter of RST by PEG400)",[1]; x1 = 0.50,1.65
same,D (derivative of the Gibbs energy of transfer),[1]; x1 = 0.50,–4.88 kJ·mol^–1
same,"G1,3 (Kirkwood–Buff integral, PEG400–RST)",[1]; x1 = 0.50,–323.8 cm^3·mol^–1
same,"G2,3 (Kirkwood–Buff integral, water–RST)",[1]; x1 = 0.50,–584.0 cm^3·mol^–1
same,Vcor (correlation volume),[1]; x1 = 0.50,4396 cm^3·mol^–1
same,"100 δx1,3 (preferential solvation parameter of RST by PEG400)",[1]; x1 = 0.55,1.64
same,D (derivative of the Gibbs energy of transfer),[1]; x1 = 0.55,–4.36 kJ·mol^–1
same,"G1,3 (Kirkwood–Buff integral, PEG400–RST)",[1]; x1 = 0.55,–322.8 cm^3·mol^–1
same,"G2,3 (Kirkwood–Buff integral, water–RST)",[1]; x1 = 0.55,–601.8 cm^3·mol^–1
same,Vcor (correlation volume),[1]; x1 = 0.55,4652 cm^3·mol^–1
same,"100 δx1,3 (preferential solvation parameter of RST by PEG400)",[1]; x1 = 0.60,1.61
same,D (derivative of the Gibbs energy of transfer),[1]; x1 = 0.60,–3.92 kJ·mol^–1
same,"G1,3 (Kirkwood–Buff integral, PEG400–RST)",[1]; x1 = 0.60,–322.0 cm^3·mol^–1
same,"G2,3 (Kirkwood–Buff integral, water–RST)",[1]; x1 = 0.60,–621.8 cm^3·mol^–1
same,Vcor (correlation volume),[1]; x1 = 0.60,4901 cm^3·mol^–1
same,"100 δx1,3 (preferential solvation parameter of RST by PEG400)",[1]; x1 = 0.65,1.55
same,D (derivative of the Gibbs energy of transfer),[1]; x1 = 0.65,–3.54 kJ·mol^–1
same,"G1,3 (Kirkwood–Buff integral, PEG400–RST)",[1]; x1 = 0.65,–321.5 cm^3·mol^–1
same,"G2,3 (Kirkwood–Buff integral, water–RST)",[1]; x1 = 0.65,–643.4 cm^3·mol^–1
same,Vcor (correlation volume),[1]; x1 = 0.65,5144 cm^3·mol^–1
same,"100 δx1,3 (preferential solvation parameter of RST by PEG400)",[1]; x1 = 0.70,1.46
same,D (derivative of the Gibbs energy of transfer),[1]; x1 = 0.70,–3.21 kJ·mol^–1
same,"G1,3 (Kirkwood–Buff integral, PEG400–RST)",[1]; x1 = 0.70,–321.0 cm^3·mol^–1
same,"G2,3 (Kirkwood–Buff integral, water–RST)",[1]; x1 = 0.70,–664.5 cm^3·mol^–1
same,Vcor (correlation volume),[1]; x1 = 0.70,5379 cm^3·mol^–1
same,"100 δx1,3 (preferential solvation parameter of RST by PEG400)",[1]; x1 = 0.75,1.31
same,D (derivative of the Gibbs energy of transfer),[1]; x1 = 0.75,–2.92 kJ·mol^–1
same,"G1,3 (Kirkwood–Buff integral, PEG400–RST)",[1]; x1 = 0.75,–320.4 cm^3·mol^–1
same,"G2,3 (Kirkwood–Buff integral, water–RST)",[1]; x1 = 0.75,–682.1 cm^3·mol^–1
same,Vcor (correlation volume),[1]; x1 = 0.75,5607 cm^3·mol^–1
same,"100 δx1,3 (preferential solvation parameter of RST by PEG400)",[1]; x1 = 0.80,1.09
same,D (derivative of the Gibbs energy of transfer),[1]; x1 = 0.80,–2.67 kJ·mol^–1
same,"G1,3 (Kirkwood–Buff integral, PEG400–RST)",[1]; x1 = 0.80,–319.6 cm^3·mol^–1
same,"G2,3 (Kirkwood–Buff integral, water–RST)",[1]; x1 = 0.80,–691.4 cm^3·mol^–1
same,Vcor (correlation volume),[1]; x1 = 0.80,5827 cm^3·mol^–1
same,"100 δx1,3 (preferential solvation parameter of RST by PEG400)",[1]; x1 = 0.85,0.83
same,D (derivative of the Gibbs energy of transfer),[1]; x1 = 0.85,–2.45 kJ·mol^–1
same,"G1,3 (Kirkwood–Buff integral, PEG400–RST)",[1]; x1 = 0.85,–318.5 cm^3·mol^–1
same,"G2,3 (Kirkwood–Buff integral, water–RST)",[1]; x1 = 0.85,–687.6 cm^3·mol^–1
same,Vcor (correlation volume),[1]; x1 = 0.85,6039 cm^3·mol^–1
same,"100 δx1,3 (preferential solvation parameter of RST by PEG400)",[1]; x1 = 0.90,0.54
same,D (derivative of the Gibbs energy of transfer),[1]; x1 = 0.90,–2.26 kJ·mol^–1
same,"G1,3 (Kirkwood–Buff integral, PEG400–RST)",[1]; x1 = 0.90,–317.0 cm^3·mol^–1
same,"G2,3 (Kirkwood–Buff integral, water–RST)",[1]; x1 = 0.90,–668.0 cm^3·mol^–1
same,Vcor (correlation volume),[1]; x1 = 0.90,6246 cm^3·mol^–1
same,"100 δx1,3 (preferential solvation parameter of RST by PEG400)",[1]; x1 = 0.95,0.25
same,D (derivative of the Gibbs energy of transfer),[1]; x1 = 0.95,–2.08 kJ·mol^–1
same,"G1,3 (Kirkwood–Buff integral, PEG400–RST)",[1]; x1 = 0.95,–315.3 cm^3·mol^–1
same,"G2,3 (Kirkwood–Buff integral, water–RST)",[1]; x1 = 0.95,–633.9 cm^3·mol^–1
same,Vcor (correlation volume),[1]; x1 = 0.95,6447 cm^3·mol^–1
same,"100 δx1,3 (preferential solvation parameter of RST by PEG400)",[1]; x1 = 1.00,0.00
same,D (derivative of the Gibbs energy of transfer),[1]; x1 = 1.00,–1.93 kJ·mol^–1
same,"G1,3 (Kirkwood–Buff integral, PEG400–RST)",[1]; x1 = 1.00,–313.7 cm^3·mol^–1
same,"G2,3 (Kirkwood–Buff integral, water–RST)",[1]; x1 = 1.00,–590.9 cm^3·mol^–1
same,Vcor (correlation volume),[1]; x1 = 1.00,6645 cm^3·mol^–1
same,pKa,[2]; GastroPlus input parameter (Table 5),4
same,hydrogen-bonding acceptor counts,[2]; GastroPlus input parameter,10
same,hydrogen-bonding donor counts,[2]; GastroPlus input parameter,3
same,maximum solubility in PEG400,[2]; PEG400,65.7 mg/g
same,aqueous solubility,[2]; as reported in NLM PubChem,8.86 × 10^–2 g/L
same,solubility (mg/mL) in water at 25 (°C),"[2]; water, 25 °C, GastroPlus input parameter",0.33 mg/mL
same,elimination half-life,[3]; GastroPlus input parameter,19 h
same,total clearance,[3]; GastroPlus input parameter,0.455 L/h
same,volume of distribution,[3]; GastroPlus input parameter,2.23 L/kg
same,oral bioavailability,[3]; reported,~20%
